Source: patent US10793892B2, “Method for detecting the presence of expanded spectrum β-lactamase-producing bacteria in a sample” (INSERM (INSTITUT NATIONAL DE LA SANTE ET DE LA RECHERCHE …, priority 2011, dated 2020)

What was measured:
E. coli = assay: ESBL NDP test using cultured strains; format: biochemical, Escherichia coli; design: key: (+) and (−) referred to color change being, red to yellow or unchanged, respectively; (+) and (−) referred to color change being, red to yellow or unchanged, respectively
Procedure: Strains were isolated on Mueller-Hinton agar (Biorad, Marnes-la-Coquette, France) and incubated at 37° C. for 16 h to 24 h before performing the NDP rapid ESBL test as follows. One calibrated inoculated loop (10 μl) of the tested strain was resuspended in 150 μl of 20 mM Tris-HCl lysis buffer previously distributed in Microbead tubes (Ultraclean Microbial DNA isolation kit Bead Tubes, MO BIO Laboratories, Carlsbad, USA). Mechanical lysis of bacteria was performed by strong agitation of Microbead tubes using a vortex adapter (MO BIO Laboratories) for 30 min at room temperature. This bacterial suspension was centrifuged at 10,000×g at room temperature for 5 min. Thirty μl of the supernatant was mixed in a well of a 96-well tray with 100 μl of a 1 ml solution made of 3 mg of purified cefotaxime sodium salt (Sigma-Aldrich, Saint-Quentin-Fallavier, France) in a pH 7.8 phenol red solution. […]. The phenol red solution was made by taking 2 ml of a concentrated pH 8 phenol solution (made from a mixture of phenol red 0.5% in distilled water) to which 16.6 ml of distilled water was added. The pH value was then adjusted to a 7.8 value by adding drops of a 1 N NaOH solution. Mixture of the phenol red solution and the enzymatic suspension being tested was incubated at 37° C. for 30 min. Similarly, culture extracts were analyzed in wells containing cefotaxime and tazobactam (4 mg/ml). Other concentrations of tazobactam and other ß-lactamase inhibitors were tested giving less clear results (data not shown). […] This definition of test positivity will be applied throughout the study.

M. morganii = assay: Susceptibility testing, MIC by Etest; format: cell-based, Morganella morganii; conditions: M. morganii Wild-type, chromosome-encoded cephalosporinase, n=2
Procedure: Susceptibility testing was performed by determining MIC values using the Etest® (AB bioMérieux; Solna, Sweden) on Mueller-Hinton agar plates at 37° C. and results were recorded according to US guidelines (CLSI), as updated in 2012 (2). The breakpoints for cefotaxime are susceptible (S)≤1 and resistant (R)≥4 μg/ml, and for ceftazidime S≤4 and R≥16 μg/ml.

S. marcescens = assay: ESBL NDP test using spiked blood cultures; format: biochemical, Serratia marcescens; design: key: (+) and (−) referred to color change being, red to yellow or unchanged, respectively; (+) and (−) referred to color change being, red to yellow or unchanged, respectively
Procedure: Strains were isolated on Mueller-Hinton agar (Biorad, Marnes-la-Coquette, France) and incubated at 37° C. for 16 h to 24 h before performing the NDP rapid ESBL test as follows. One calibrated inoculated loop (10 μl) of the tested strain was resuspended in 150 μl of 20 mM Tris-HCl lysis buffer previously distributed in Microbead tubes (Ultraclean Microbial DNA isolation kit Bead Tubes, MO BIO Laboratories, Carlsbad, USA). Mechanical lysis of bacteria was performed by strong agitation of Microbead tubes using a vortex adapter (MO BIO Laboratories) for 30 min at room temperature. This bacterial suspension was centrifuged at 10,000×g at room temperature for 5 min. Thirty μl of the supernatant was mixed in a well of a 96-well tray with 100 μl of a 1 ml solution made of 3 mg of purified cefotaxime sodium salt (Sigma-Aldrich, Saint-Quentin-Fallavier, France) in a pH 7.8 phenol red solution. […]. […] Similarly, culture extracts were analyzed in wells containing cefotaxime and tazobactam (4 mg/ml). […]
Rapid detection of ESBL producers was attempted from spiked blood cultures which positivity was assessed using the BactAlert blood culture system (bioMérieux). […] Spiked blood cultures were made of 1×10^3 CFU of each strain and incubated 24 to 48 h before a positivity of the blood culture was detected by the BactAlert system. […]

CO/N=C(\C(=O)N[C@@H]1C(=O)N2C(C(=O)O)=C(COC(C)=O)CS[C@H]12)c1csc(N)n1 [CTX, cefotaxime]
ESBL NDP Test from: Colonies (E. coli; E. coli 09.11, TEM-52): + | ESBL NDP Test from: Colonies (E. coli; E. coli 09.123, TEM-133): − | ESBL NDP Test from: Colonies (E. coli; E. coli 09.124, TEM-52): + | ESBL NDP Test from: Colonies (E. coli; E. coli 09.129, SHV-12): + | ESBL NDP Test from: Colonies (E. coli; E. coli 09.173, SHV-12): + | ESBL NDP Test from: Colonies (E. coli; E. coli 09.187, SHV-2a): + | ESBL NDP Test from: Colonies (E. coli; E. coli 09.193, SHV-12): + | ESBL NDP Test from: Colonies (E. coli; E. coli 09.207, SHV-2a): + | ESBL NDP Test from: Colonies (E. coli; E. coli 09.225, TEM-52): + | ESBL NDP Test from: Colonies (E. coli; E. coli 09.40, TEM-52): + | ESBL NDP Test from: Colonies (E. coli; E. coli 09.41, SHV-12): + | ESBL NDP Test from: Colonies (E. coli; E. coli 09.66, TEM-52): + | ESBL NDP Test from: Colonies (E. coli; E. coli 09.73, TEM-52): + | ESBL NDP Test from: Colonies (E. coli; E. coli 09.79, SHV-12): + | ESBL NDP Test from: Colonies (E. coli; E. coli 09.92, TEM-52): + | ESBL NDP Test from: Colonies (E. coli; E. coli 10.104, CTX-M-1): + | ESBL NDP Test from: Colonies (E. coli; E. coli 10.11, CTX-M-14): + | ESBL NDP Test from: Colonies (E. coli; E. coli 10.121, CTX-M-2): + | ESBL NDP Test from: Colonies (E. coli; E. coli 10.124, CTX-M-14): + | ESBL NDP Test from: Colonies (E. coli; E. coli 10.130, CTX-M-3): + | ESBL NDP Test from: Colonies (E. coli; E. coli 10.13, CTX-M-14): + | ESBL NDP Test from: Colonies (E. coli; E. coli 10.132, CTX-M-2): + | ESBL NDP Test from: Colonies (E. coli; E. coli 10.16, CTX-M-15): + | ESBL NDP Test from: Colonies (E. coli; E. coli 10.178, CTX-M-27): + | ESBL NDP Test from: Colonies (E. coli; E. coli 10.198, CTX-M-27): + | ESBL NDP Test from: Colonies (E. coli; E. coli 10.204, CTX-M-27): + | ESBL NDP Test from: Colonies (E. coli; E. coli 10.207, CTX-M-27): + | ESBL NDP Test from: Colonies (E. coli; E. coli 10.23, CTX-M-2): + | ESBL NDP Test from: Colonies (E. coli; E. coli 10.32, CTX-M-14): + | ESBL NDP Test from: Colonies (E. coli; E. coli 10.33, CTX-M-15): + | ESBL NDP Test from: Colonies (E. coli; E. coli 10.36, CTX-M-1): + | ESBL NDP Test from: Colonies (E. coli; E. coli 10.38, CTX-M-1): + | ESBL NDP Test from: Colonies (E. coli; E. coli 10.43, CTX-M-15): + | ESBL NDP Test from: Colonies (E. coli; E. coli 10.46, CTX-M-14): + | ESBL NDP Test from: Colonies (E. coli; E. coli 10.49, CTX-M-15): + | ESBL NDP Test from: Colonies (E. coli; E. coli 10.53, CTX-M-9): + | ESBL NDP Test from: Colonies (E. coli; E. coli 10.64, CTX-M-32): + | ESBL NDP Test from: Colonies (E. coli; E. coli 10.73, CTX-M-27): + | ESBL NDP Test from: Colonies (E. coli; E. coli 10.74, CTX-M-15): + | ESBL NDP Test from: Colonies (E. coli; E. coli 10.95, CTX-M-1): + | ESBL NDP Test from: Colonies (E. coli; E. coli (Belgium), ACC-1): − | ESBL NDP Test from: Colonies (E. coli; E. coli A7R5, SHV-3): + | Test (color change) (E. coli; E. coli ACC-1, n=1, first line): − | Test (color change) (E. coli; E. coli ACC-1, n=1, second line): + | ESBL NDP Test from: Colonies (E. coli; E. coli BG 1106 5698, Penicillinase): − | ESBL NDP Test from: Colonies (E. coli; E. coli BG 1106 6252, Wild-type): − | ESBL NDP Test from: Colonies (E. coli; E. coli BG 1106 6367, Wild-type): − | ESBL NDP Test from: Colonies (E. coli; E. coli BG 1106 7202, Penicillinase): − | ESBL NDP Test from: Colonies (E. coli; E. coli BG 1107 8873, Wild-type): − | ESBL NDP Test from: Colonies (E. coli; E. coli BG 1108 6157, Penicillinase): − | ESBL NDP Test from: Colonies (E. coli; E. coli C5O52, CTX-M-28): + | Test (color change) (E. coli; E. coli CMY-2, n=1): + | Test (color change) (E. coli; E. coli CTX-M-1, n=16): + | Test (color change) (E. coli; E. coli CTX-M-2, n=3): + | Test (color change) (E. coli; E. coli CTX-M-3, n=1): + | Test (color change) (E. coli; E. coli CTX-M-9, n=1): + | Test (color change) (E. coli; E. coli CTX-M-14, n=15): + | Test (color change) (E. coli; E. coli CTX-M-15, n=46): + | Test (color change) (E. coli; E. coli CTX-M-27, n=6): + | Test (color change) (E. coli; E. coli CTX-M-28, n=1): + | Test (color change) (E. coli; E. coli CTX-M-32, n=1): + | Test (color change) (E. coli; E. coli CTX-M-97, n=1): + | Test (color change) (E. coli; E. coli DHA-1, n=1): − | ESBL NDP Test from: Colonies (E. coli; E. coli Ec13 SYD, CMY-2): + | ESBL NDP Test from: Colonies (E. coli; E. coli GOU, DHA-1): − | ESBL NDP Test from: Colonies (E. coli; E. coli LOU, ACC-1): + | Test (color change) (E. coli; E. coli SHV-2a, n=3): + | Test (color change) (E. coli; E. coli SHV-3, n=1): + | Test (color change) (E. coli; E. coli SHV-12, n=1): − | Test (color change) (E. coli; E. coli SHV-12, n=6): + | Test (color change) (E. coli; E. coli TEM-1 penicillinase, n=5): − | Test (color change) (E. coli; E. coli TEM-12, n=1): − | Test (color change) (E. coli; E. coli TEM-29, n=2): − | Test (color change) (E. coli; E. coli TEM-52, n=8): + | Test (color change) (E. coli; E. coli TEM-133, n=1): − | Test (color change) (E. coli; E. coli VEB-1, n=1): + | Test (color change) (E. coli; E. coli Wild-type, no resistance, n=5): − | MICs range (M. morganii): 0.03 to 0.75 µg/mL | ESBL NDP Test from: Blood culture (S. marcescens; S. marcescens BG 1107 4243, Wild-type): − | ESBL NDP Test from: Blood culture (S. marcescens; S. marcescens BN 1201 0816, Wild-type): −
